Assays:
[1] = Activity of synthetic SDG compared with natural SDG; settings: synthetic vs natural counterpart
Description: Using a mouse model of proton radiation exposure, we have identified dose-dependent pathophysiological changes in the lung. […] Thus, we further hypothesize that LGM2605 will be effective against proton-induced pulmonary damage, such as inflammation, oxidative stress and senescence.

[2] = system: human precision-cut lung slices (huPCLS); test: Proinflammatory cytokine gene levels (qPCR) in huPCLS after 4 Gy proton radiation; type: cell-based; settings: 50 Mm LGM2605 given 4 hours prior, 30 min and 24 hours post irradiation, normalized to 18S rRNA
Protocol: (§1) FIG. 2: Novel Ex vivo model of human lung: human precision-cut lung slices for radiation exposure. Human Precision-cut slice preparation: Slices (huPCLS) were obtained by inflating the donor human lung with low melting temperature agarose, sectioning, coring, and slicing, as shown above. The 350 μm thick slices were washed three times with culture medium to rid airways of agarose and are viable at 37 °C, up to a week.
FIG. 3: Evaluation of inflammatory markers, in huPCLS, at 30 min and 24 hours post 4 Gy proton radiation with or without SDG pre-treatment for 4 hours. Transcript levels of (A) IL1B, (B) IL6 and (C) TNF-alpha are normalized to 18S rRNA. *p<0.05.
(§2) Methods: Since the testing of our hypothesis in human tissues is critical and cannot be mechanistically pursued in patients, we pursued a novel approach, using an ex vivo model of human normal lung precision-cut sections (huPCLS), used for the first time to our knowledge, in radiation studies. The huPCLS consist of all relevant cell types of the respiratory tract, situated in their microanatomical environment, validated for pharmacological testing. Human lung sections were exposed to 4 Gy proton radiation in the presence of 0 and 50 Mm LGM2605, given 4 hours prior to exposure. Tissues were evaluated 30 min and 24 hours post irradiation for gene expression, protein level changes, and betagalactosidase activity, relevant to inflammation, oxidative stress and senescence.

[3] = system: human precision-cut lung slices (huPCLS); test: SA-β-Gal staining of huPCLS post proton radiation; type: cell-based; settings: 24 hour post proton radiation, 50 Mm LGM2605 given 4 hours prior
Protocol: as §1
FIG. 5: LGM2605 reduces senescent-like phenotype of huPCLS. […] A) SA-β-Gal staining of huPCLS at 24 hour post proton radiation. B) Quantification of the β-gal positive stained cells. Percentage change of the β-gal positive cells of the irradiated huPCLS compared to the nonirradiated huPCLS.
as §2, with “Human lung sections were exposed to 4 Gy proton radiation in the presence of 0 and 50 Mm LGM2605, given 4 hours prior to exposure.” left out

[4] = Antioxidant and free radical scavenging characteristics
Description: FIG. 1. Bioactive polyphenolic plant lignans in flaxseed and radiation Damage. Secoisolariciresinol diglucoside (SDG) is the major lignan phenolic in flaxseed. Due to complex SDG extraction, purification and enrichment methods from natural resources, SDG was chemically synthesized. […] (B) The structure of SDG.

[5] = system: human precision-cut lung slices (huPCLS); test: Senescence marker protein levels (Western Blot of whole tissue lysates) in huPCLS treated with proton; type: cell-based; settings: proton radiation, 50 Mm LGM2605 given 4 hours prior
Protocol: as §1
(§3) FIG. 6: LGM2605 decreases Proton Radiation-induced Senescence Markers, both at the Gene and Protein Level, in huPCLS. […] Transcript levels of tested genes are normalized to 18S rRNA.*p<0.05.
as §2

[6] = system: human precision-cut lung slices (huPCLS); test: Antioxidant gene levels (qPCR) in huPCLS after 4 Gy proton radiation; type: cell-based; settings: 50 Mm LGM2605 given 4 hours prior, 30 min and 24 hours post irradiation, normalized to 18S rRNA
Protocol: as §1
FIG. 4: qPCR analysis of (A) HMOX-1 and (B) NQO1 in huPCLS after 30 min and 24 hours post 4 Gy proton radiation with or without SDG pretreatment for 4 hours. Data are represented as average fold change from non-irradiated control±SEM. Transcript levels of tested genes are normalized to 18S rRNA. *p<0.05.
as §2, with “Human lung sections were exposed to 4 Gy proton radiation in the presence of 0 and 50 Mm LGM2605, given 4 hours prior to exposure.” left out

[7] = system: human precision-cut lung slices (huPCLS); test: Senescence marker gene levels (qPCR) in huPCLS after 4 Gy proton radiation; type: cell-based; settings: 50 Mm LGM2605 given 4 hours prior, 30 min and 24 hours post irradiation
Protocol: as §1, §3, §2

## COc1cc(C[C@@H](CO[C@@H]2O[C@H](CO)[C@@H](O)[C@H](O)[C@H]2O)[C@H](CO[C@@H]2O[C@H](CO)[C@@H](O)[C@H](O)[C@H]2O)Cc2ccc(O)c(OC)c2)ccc1O [LGM2605, secoisolariciresinol diglucoside]
[1]
  activity relative to natural SDG: equipotent activity with its natural counterpart
[2]
  IL-1β (IL1B) inflammatory marker gene level: reduction
  IL-6 (IL6) inflammatory marker gene level: reduction
  TNFα inflammatory marker gene level: reduction
[3]
  senescent-like phenotype (SA-β-galactosidase positive staining): protects huPCLS from a senescent-like phenotype
[4]
  antioxidant and free radical scavenging characteristics: strong antioxidant and free radical, scavenging characteristics
[5]
  p16 senescent marker protein level: reduces
  p53 senescent marker protein level: reduces
[6]
  antioxidant HO (HMOX-1) gene level: increase
  antioxidant NQO1 gene level: increase
[7]
  CDKN2A senescent marker gene level: reduces
  TP53 senescent marker gene level: reduces

Reference: patent US20180243327A1, “USE OF SECOISOLARICIRESINOL DIGLUCOSIDES (SDGs) AND RELATED COMPOUNDS FOR PROTECTION AGAINST RADIATION DAMAGE” (THE TRUSTEES OF THE UNIVERSITY OF PENNSYLVANIA, priority 2015, published 2018)
